Assay results as given in patent publication US20050090669A1, “Aminoalcohol derivatives as beta-3 adrenergic receptor agonists” (priority 2002, published 2005).

System: Increase in Intravesical Pressure Induced by Carbachol in Anesthetized Dog
Test: Effect on the increase in intravesical pressure induced by carbachol in anesthetized dog
Assay type: in vivo
Conditions: 0.032 mg/kg intravenously, 30 minutes before carbachol (1.8 μg/kg); female Beagle dogs under halothane anesthesia
Method: Effect on the Increase in Intravesical Pressure Induced by Carbachol in Anesthetized Dog
Female Beagle dogs weighing 8.0-15.0 kg were fasted for 24 hours and maintained under halothane anesthesia. A 12 F Foley catheter was lubricated with water soluble jelly, inserted into the urethral orifice and advanced approximately 10 cm until the balloon tip was placed well inside the bladder. The balloon was then inflated with 5 ml of room air and catheter slowly withdrawn just part the first resistance that is felt at the bladder neck. Urine was completely drained out through the catheter, and 30 ml of biological saline was infused. The catheter was connected to pressure transducer, and intravesical pressure (IVP) was continuously recordered. The test compound was administered intravenously at 30 minutes before the administration of carbachol (1.8 μg/kg). Percent inhibition of IVP increase by test compound was calculated by dividing IVPa (IVP increase induced by carbachol after test compound administaration) by IVPb (IVP increase induced by carbachol just before test compound administration).

COc1ccc(Oc2ccc3c(c2)C[C@@H](NC[C@H](O)c2ccc(Cl)cc2)CC3)cc1C(=O)O.Cl [Test Compound (1), 5-[[(7S)-7-[[(2R)-2-(4-Chlorophenyl)-2-hydroxyethyl]-amino]-5,6,7,8-tetrahydro-2-naphthalenyl]oxy]-2-methoxybenzoic Acid Hydrochloride]
Percent inhibition of IVP increase: 54%
